# Measurements as given in patent US20170022171A1, “2,5-DISUBSTITUTED CYCLOPENTANECARBOXYLIC ACIDS AND THEIR USE” (Bayer Pharma Aktiengesellschaft, priority 2014, published 2017).
# Legend:
# Format in all cases: biochemical
# MMP-2 = biological target: T1, MMP-2 (Homo sapiens, UniProt P08253); assay: In vitro MMP-2 inhibition test
# T1 construct: purchased R&D Systems 902-MP
# T1 sequence (P08253 110-660): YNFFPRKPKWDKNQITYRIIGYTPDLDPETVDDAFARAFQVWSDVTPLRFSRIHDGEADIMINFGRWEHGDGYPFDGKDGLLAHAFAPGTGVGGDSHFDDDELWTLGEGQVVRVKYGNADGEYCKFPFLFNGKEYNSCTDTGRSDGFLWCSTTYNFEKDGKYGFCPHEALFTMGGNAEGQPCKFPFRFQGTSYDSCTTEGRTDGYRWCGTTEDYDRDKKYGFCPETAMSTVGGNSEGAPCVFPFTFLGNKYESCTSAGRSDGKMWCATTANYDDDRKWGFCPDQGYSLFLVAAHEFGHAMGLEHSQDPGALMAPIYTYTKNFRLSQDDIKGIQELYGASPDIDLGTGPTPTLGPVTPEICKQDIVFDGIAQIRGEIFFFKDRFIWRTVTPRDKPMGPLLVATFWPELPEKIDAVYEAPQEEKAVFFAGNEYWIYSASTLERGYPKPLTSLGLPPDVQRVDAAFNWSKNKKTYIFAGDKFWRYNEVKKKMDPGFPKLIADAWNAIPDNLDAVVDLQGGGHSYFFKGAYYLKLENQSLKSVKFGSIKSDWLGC
# How it was run: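 APMA-activated recombinant MMP-2 (final e.g. 2 nM) in 50 mM Tris/HCl pH 7.5, 10 mM CaCl2, 150 mM NaCl, 0.05% Brij-35, with compound in DMSO. Started with quenched Mca-PLGL-Dpa(Dnp)-AR-NH2 (e.g. 10 μM); fluorescence (ex 320/em 410 nm) followed e.g. 120 min at 32° C.; IC50 at 50% signal.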
# MMP-1 = biological target: T2, MMP-1 (Homo sapiens, UniProt P03956); assay: In vitro MMP-1 inhibition test
# T2 construct: purchased R&D Systems 901-MP
# T2 sequence (P03956 100-469): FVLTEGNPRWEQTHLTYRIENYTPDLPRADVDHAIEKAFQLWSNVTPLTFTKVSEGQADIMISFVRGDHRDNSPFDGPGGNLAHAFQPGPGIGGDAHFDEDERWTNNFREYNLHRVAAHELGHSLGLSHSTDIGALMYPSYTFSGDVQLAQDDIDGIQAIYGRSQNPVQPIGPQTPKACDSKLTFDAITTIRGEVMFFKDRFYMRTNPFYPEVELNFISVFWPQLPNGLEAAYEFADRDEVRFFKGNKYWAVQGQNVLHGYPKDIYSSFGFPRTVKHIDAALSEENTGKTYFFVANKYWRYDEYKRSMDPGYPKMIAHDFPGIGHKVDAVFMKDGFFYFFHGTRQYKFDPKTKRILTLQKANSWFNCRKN
# How it was run: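 APMA-activated recombinant enzyme (e.g. 2 nM final) in 50 mM Tris/HCl pH 7.5, 10 mM CaCl2, 150 mM NaCl, 0.05% Brij-35 with compound in DMSO (e.g. 1 nM–30 μM). Quenched Mca-Pro-Leu-Gly-Leu-Dpa(Dnp)-Ala-Arg-NH2 substrate (e.g. 10 μM) started reaction; fluorescence (ex 320/em 410 nm) followed e.g. 120 min at 32° C; IC50 at 50% signal.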
# MMP-7 = biological target: T3, MMP-7 (Homo sapiens, UniProt P09237); assay: In vitro MMP-7 inhibition test
# T3 construct: purchased R&D Systems 907-MP
# T3 sequence (P09237 95-267): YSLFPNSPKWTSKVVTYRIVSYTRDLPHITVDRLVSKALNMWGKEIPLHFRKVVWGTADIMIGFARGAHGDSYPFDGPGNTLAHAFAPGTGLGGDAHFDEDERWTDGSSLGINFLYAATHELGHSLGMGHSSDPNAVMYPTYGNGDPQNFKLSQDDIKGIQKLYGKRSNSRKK
# How it was run: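 APMA-activated recombinant MMP-7 (e.g. 0.5 nM final) in Tris/HCl pH 7.5 with CaCl2, NaCl and Brij-35; started with quenched fluorogenic Mca-PLGL-Dpa(Dnp)-AR-NH2 substrate (e.g. 10 μM final). Fluorescence (ex 320/em 410 nm) followed e.g. over 120 min at 32° C; IC50 is the concentration giving 50% signal.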
compound,measurement,setting,value
"O=C(O)[C@@H]1[C@@H](Cn2nnc3ccc(C(F)(F)F)cc3c2=O)CC[C@H]1C(=O)c1ccc(OCc2cccc(C(F)(F)F)c2)cc1 (single isomer, unassigned) [Example 19, (+)-(1RS,2SR,5RS)-2-{[4-Oxo-6-(trifluoromethyl)-1,2,3-benzotriazin-3(4H)-yl]methyl}-5-(4-{[3-(trifluoromethyl)benzyl]oxy}benzoyl)cyclopentanecarboxylic acid]",IC50,MMP-2,3.8 µM
same,IC50,MMP-1,37 µM
same,IC50,MMP-7,1.6 µM
"CCCCOc1ccc(C(=O)[C@@H]2CC[C@H](Cn3nnc4ccc(C(F)(F)F)cc4c3=O)[C@H]2C(=O)O)cc1 (single isomer, unassigned) [Example 67, (+)-(1RS,2RS,5SR)-2-(4-Butoxybenzoyl)-5-{[4-oxo-6-(trifluoromethyl)-1,2,3-benzotriazin-3(4H)-yl]methyl}cyclopentanecarboxylic acid]",IC50,MMP-2,0.27 µM
same,IC50,MMP-1,5.2 µM
same,IC50,MMP-7,0.12 µM
"O=C(O)[C@@H]1[C@@H](Cn2nnc3ccc(C(F)(F)F)cc3c2=O)CC[C@H]1C(=O)c1ccc(OCc2cccc(N3CCOC3=O)c2)cc1 (single isomer, unassigned) [Example 35, (+)-(1RS,2RS,5SR)-2-(4-{[3-(2-Oxo-1,3-oxazolidin-3-yl)benzyl]oxy}benzoyl)-5-{[4-oxo-6-(trifluoromethyl)-1,2,3-benzotriazin-3(4H)-yl]methyl}cyclopentanecarboxylic acid]",IC50,MMP-2,0.45 µM
same,IC50,MMP-1,2.1 µM
same,IC50,MMP-7,0.031 µM
"O=C(O)[C@@H]1[C@@H](Cn2nnc3ccc(C(F)(F)F)cc3c2=O)CC[C@H]1C(=O)c1ccc(SCc2ccc(Cl)c(Cl)c2)cc1 (single isomer, unassigned) [Example 80, (+)-(1RS,2RS,5SR)-2-{4-[(3,4-Dichlorobenzyl)sulphanyl]benzoyl}-5-{[4-oxo-6-(trifluoromethyl)-1,2,3-benzotriazin-3(4H)-yl]methyl}cyclopentanecarboxylic acid]",IC50,MMP-2,1.4 µM
same,IC50,MMP-1,2.5 µM
same,IC50,MMP-7,0.2 µM
"Cc1ccc2nnn(C[C@H]3CC[C@@H](C(=O)c4ccc(OCC5CCCCC5)cc4)[C@@H]3C(=O)O)c(=O)c2c1 (single isomer, unassigned) [Example 117, (+)-(1RS,2RS,5SR)-2-[4-(Cyclohexylmethoxy)benzoyl]-5-[(6-methyl-4-oxo-1,2,3-benzotriazin-3(4H)-yl)methyl]cyclopentanecarboxylic acid]",IC50,MMP-2,0.097 µM
same,IC50,MMP-1,4.4 µM
same,IC50,MMP-7,0.1 µM
"O=C(O)[C@H]1[C@H](Cn2nnc3ccc(C(F)(F)F)cc3c2=O)CC[C@@H]1C(=O)c1ccc(OCCCC2CCCCC2)cc1 (racemic) [Example 56, (+/−)-(1RS,2RS,5SR)-2-{4-(3-Cyclohexylpropoxy)benzoyl}-5-{[4-oxo-6-(trifluoromethyl)-1,2,3-benzotriazin-3(4H)-yl]methyl}cyclopentanecarboxylic acid]",IC50,MMP-2,2.8 µM
same,IC50,MMP-1,> 40 µM
same,IC50,MMP-7,1.4 µM
"O=C(O)[C@H]1[C@H](Cn2nnc3ccccc3c2=O)CC[C@@H]1C(=O)c1ccc(OCc2ccc(F)cc2)cc1 (racemic) [Example 1, (+/−)-(1RS,2RS,5SR)-2-{4-[(4-Fluorobenzyl)oxy]benzoyl}-5-[(4-oxo-1,2,3-benzotriazin-3(4H)-yl)methyl]cyclopentanecarboxylic acid]",IC50,MMP-2,0.0093 µM
same,IC50,MMP-1,5.2 µM
same,IC50,MMP-7,1.1 µM
"Cc1cccc(COc2ccc(C(=O)[C@H]3CC[C@@H](Cn4nnc5ccc(C(F)(F)F)cc5c4=O)[C@@H]3C(=O)O)cc2)c1 (racemic) [Example 15, (+/−)-(1RS,2RS,5SR)-2-{4-[(3-Methylbenzyl)oxy]benzoyl}-5-{[4-oxo-6-(trifluoromethyl)-1,2,3-benzotriazin-3(4H)-yl]methyl}cyclopentanecarboxylic acid]",IC50,MMP-2,0.48 µM
same,IC50,MMP-1,8.3 µM
same,IC50,MMP-7,0.12 µM
"O=C(O)[C@H]1[C@H](Cn2nnc3ccc(C(F)(F)F)cc3c2=O)CC[C@@H]1C(=O)c1ccc(OCc2cccc(C(F)(F)F)c2)cc1 (racemic) [Example 18, (+/−)-(1RS,2SR,5RS)-2-{[4-Oxo-6-(trifluoromethyl)-1,2,3-benzotriazin-3(4H)-yl]methyl}-5-(4-{[3-(trifluoromethyl)benzyl]oxy}benzoyl)cyclopentanecarboxylic acid]",IC50,MMP-2,2 µM
same,IC50,MMP-1,> 40 µM
same,IC50,MMP-7,0.91 µM
